Data on 5 compounds can be found in article PMC4506092, “Utilizing Chemical Genomics to Identify Cytochrome b as a Novel Drug Target for Chagas Disease” (PLoS Pathogens, 2015).

SMILES strings stand for the structures. Where two headings read alike, the source gives them in different places.

Broadly, the EC50 is the concentration that produces a half-maximal response.

The test system of data set [1] is T. cruzi epimastigotes (wild-type). Description: T. cruzi epimastigote growth assay (CellTiter-Glo), wild-type. It is filed as cell-based, Trypanosoma cruzi. The note with it: for EC50: wild-type T. cruzi, seven days, read-out: Epimastigote EC50, WT. As for the experimental part: To determine compound activity on the T. cruzi epimastigote form, epimastigotes (20 μL; 2.5 × 10^5 parasites / mL) were added to 384-well assay plates containing 20 μL of LIT media with pre-dispensed compounds (0.2% DMSO final concentration) and incubated for seven days at 26°C / 0% CO2. Parasite viability was assessed at the end of this incubation period using the CellTiter-Glo Luminescent Cell Viability Assay (Promega). Luminescence as a measure of parasite viability was measured on the EnVision plate reader.
In general terms: Cellular ATP, detected with luciferase, serves as a proxy for viable cell number.

Data set [2] has as its system T. cruzi trypomastigotes (wild-type). Description: T. cruzi trypomastigote viability assay (CellTiter-Glo), wild-type. It is filed as cell-based, Trypanosoma cruzi. To be noted: 48-hour incubation, read-out: Trypomastigote EC50, WT. The method, then:
(§1) To assess compound efficacy on trypomastigotes, parasites (30 μL; 2 × 10^6 trypomastigotes / mL) were added to 384-well plates containing 10 μL of RPMI-1640 without phenol red (Invitrogen) and supplemented with 10% FBS and 100 IU penicillin / 100 µg streptomycin per mL, and then treated with compounds (0.2% DMSO final concentration). Following a 48-hour incubation period, viability was assessed using the CellTiter-Glo Luminescent Cell Viability Assay (Promega).

For data set [3], the system named is T. cruzi trypomastigotes (GNF7686-resistant, DR). Description: T. cruzi trypomastigote viability assay (CellTiter-Glo), GNF7686-resistant. To be noted: for EC50: GNF7686-resistant T. cruzi, 48-hour incubation. Format: cell-based, Trypanosoma cruzi. As for the experimental part: as §1
Data set [4] has as its system T. b. brucei bloodstream form. Description: T. b. brucei bloodstream form in vitro efficacy assay. Format: cell-based, Trypanosoma brucei brucei. The note with it: 48 hours, read-out: T. b. Brucei EC50, BSF. The method, then:
Trypanosoma brucei brucei (T. b. brucei) bloodstream form (strain Lister 427) was maintained in HMI-9 medium: IMDM (Iscove's Modified Dulbecco's Media), 10% heat-inactivated FBS, 10% Serum Plus medium supplement (SAFC biosciences), 1 mM hypoxanthine, 50 μM bathocuproine disulfonate.Na2, 1.5 mM cysteine, 1 mM pyruvate, 39 μg/mL thymidine, and 0.2 mM 2-mercapthoethanol) at 37°C / 5% CO2.
For compound screening, parasites were seeded into 384-well assay plates containing HMI-9 with pre-dispensed compounds (0.25% final DMSO concentration) at a density of 6,000 cells / well, and plates were then incubated for 48 hours at 37°C / 5% CO2. Cell viability was assessed using the CellTiter-Glo Luminescent Cell Viability Assay (Promega).

The subject of data set [5] is P. falciparum D10attB. Description: P. falciparum SYBR Green proliferation assay, D10attB line. It is filed as cell-based, Plasmodium falciparum. The method, then:
GNF7686 and cytochrome b inhibitors were assayed for activity on two Plasmodium falciparum (P. falciparum) lines: D10attB and yDHODH-D10attB. The D10attB line is reliant on the coenzyme Q-dependent malarial dihydroorotate dehydrogenase (PfDHODH), whereas the yDHODH-D10attB line expresses also the fumarate-utilizing Saccharomyces cerevisiae (S. cerevisiae) DHODH, which circumvents reliance on PfDHODH and renders this line fully resistant to cytochrome b inhibitors. The use of these two lines allows for distinction of selection of potent cytochrome b inhibitors as described in detail in the Results section. Growth and viability of P. falciparum cell lines (in the presence or absence of drug) in infected erythrocytes were assessed using a SYBR Green-based proliferation assay exactly as described previously.

Data set [6] has as its system S. cerevisiae strain NF7061. Description: S. cerevisiae susceptibility assay, YPD (dextrose) medium. Format: cell-based, Saccharomyces cerevisiae. To be noted: 24 hours. The method, then:
(§2) The minimal inhibitory concentrations (MIC) of the compounds for inhibition of S. cerevisiae drug pump knock-out strain NF7061 (MATa his3Δ 1; leu2Δ 0; met15Δ 0; ura3Δ 0; snq2::KanMX; pdr5::KanMX; pdr1::NAT1; pdr3::KanMX; yap1::NAT1; pdr2::LEU2; yrm1::MET; yor1::LYS2) were determined by a modification of the microdilution technique described elsewhere. Briefly, two-fold dilutions of the compound solution in DMSO were made. They were added to each well of 96-well assay plate containing 200 μL per well of either YPD (1% Difco Yeast Extract, 2% Difco Bacto Peptone and 2% Dextrose) or YPG (3% of glycerol in replacement of 2% Dextrose in YP) medium. Early stationary yeast NF7061 cells grown in either medium were collected and resuspended to 2 × 10^5 cells / mL. Ten microliters of the yeast cell suspension were inoculated to each well of the plates containing medium and compound to achieve a final inoculum of approximately 10^4 CFU / mL. The plates were incubated at 30°C for 24 hours (containing YPD) or 48 hours (containing YPG).

Data set [7] deals with S. cerevisiae strain NF7061. Description: S. cerevisiae susceptibility assay, YPG (glycerol) medium. It is filed as cell-based, Saccharomyces cerevisiae. The note with it: 48 hours. The method, then:
as §2

Data set [8] has as its system NIH/3T3 fibroblast cells. Description: Mammalian cell cytotoxicity assay (CellTiter-Glo). It is filed as cell-based, mouse. To be noted: for Toxicity on the host 3T3 cells (in words): host cells of the intracellular amastigote assay, prevented determination of amastigote EC50. As for the experimental part: NIH/3T3 fibroblast cells were maintained in RPMI-1640 medium supplemented with 10% heat-inactivated FBS and 100 IU penicillin / 100 μg streptomycin per mL at 37°C / 5% CO2. For compound screening, cells were diluted to 4 × 10^4 cells / mL in assay medium (RPMI-1640, 5% FBS, and 100 IU penicillin / 100 μg streptomycin per mL) and seeded at 50 μL / well into 384-well plates. Following overnight incubation, compounds were added to each well (0.2% DMSO final concentration) and plates were further incubated for 96 hours. Cell viability was assessed using the CellTiter-Glo Luminescent Cell Viability Assay (Promega). Measured luminescence values were normalized to the value obtained for 0.2% DMSO, and plotted against the corresponding compound concentration for half maximal cytotoxic concentration (CC50) value determination.

Where [9] appears, read: Plasmodium falciparum; read-out: P. falciparum EC50, D10attB.
Where [10] appears, read: Saccharomyces cerevisiae, NF7061, MIC visual growth inhibition screen.
Where [11] appears, read: MIC visual growth inhibition screen.

In the case of `O=C(Cn1ccnc1[N+](=O)[O-])NCc1ccccc1` [Benznidazole], the EC50 was 5500 ± 150 nM in data set [1] (Trypanosoma cruzi, 168 h); 13000 ± 1800 nM in data set [2] (Trypanosoma cruzi); 11000 ± 580 nM in data set [3] (Trypanosoma cruzi); > 25000 nM in data set [4] (Trypanosoma brucei); > 12500 nM in data set [5] (setting [9]); > 40000 nM in data set [6] (setting [10]). In data set [7] (setting [10]), the EC50 is > 40000 nM.

Take `CCCCCC[C@H]1C(=O)O[C@H](C)[C@H](NC(=O)c2cccc(NC=O)c2O)C(=O)O[C@@H](C)[C@@H]1OC(=O)CC(C)C` [Antimycin A]: the EC50 in data set [1] (Trypanosoma cruzi, 168 h) was 46 ± 10 nM; in data set [2] (Trypanosoma cruzi), 200 ± 40 nM; in data set [3] (Trypanosoma cruzi) it was 4300 ± 1300 nM; in data set [4] (Trypanosoma brucei) it was > 25000 nM; in data set [5] (Plasmodium falciparum, read-out: P. falciparum EC50, D10attB), 700 ± 340 nM; in data set [6] (setting [10]) it was 5000 nM. Besides, in data set [7] (setting [10]), the EC50 was < 2 nM. In data set [3], the “Shift of trypomastigote potency, mutant vs wild-type” value is listed as 20 fold. The “Toxicity on the host 3T3 cells (in words)” value (“Toxicity” below) in data set [8] is reported as “toxicity”.

As to `CCc1c(C)c(C#N)c2nc3ccccc3n2c1O` [GNF7686], the EC50 in data set [1] (Trypanosoma cruzi, 168 h) is 160 ± 20 nM; in data set [2] (Trypanosoma cruzi) it was 710 ± 160 nM; in data set [3] (Trypanosoma cruzi), 4500 ± 840 nM; in data set [4] (Trypanosoma brucei) it was > 25000 nM; in data set [5] (setting [9]), > 12500 nM; in data set [6] (setting [10]), > 40000 nM. In addition, it took 5000 nM to reach a half-maximal effect in data set [7] (setting [10]) (EC50). The “EC20 value on T. cruzi epimastigotes” value in data set [1] (starting concentration of resistance selection) was found to be 10 nM. For the same compound, in data set [8] (mouse), the “Mammalian cell proliferation: no effect observed up to” value was > 25 µM.

As for `CO\C=C(C(=O)OC)/C(C)=C\C=C\c1ccccc1` [Strobilurin], the EC50 in data set [1] (Trypanosoma cruzi, 168 h) is 590 ± 130 nM; in data set [2] (Trypanosoma cruzi), 1700 ± 410 nM; in data set [3] (Trypanosoma cruzi) it was 1400 ± 360 nM; in data set [4] (Trypanosoma brucei), > 25000 nM; in data set [5] (setting [9]), 460 ± 270 nM; in data set [6] (setting [10]), > 40000 nM. The compound further yielded an EC50 in data set [7] (setting [10]) of 100 ± 20 nM. Also, the “Toxicity” value in data set [8] is “toxicity”.

Regarding `CO/C(=C/C(N)=O)[C@H](C)[C@H](/C=C/c1csc(-c2csc([C@@H](C)/C=C/C=C/C(C)C)n2)n1)OC` [Myxothiazol], the EC50 was found to be 490 ± 50 nM in data set [1]; 2900 ± 480 nM in data set [2]; 2900 ± 430 nM in data set [3]; 17200 ± 3100 nM in data set [4]; 300 ± 10 nM in data set [5] (read-out: P. falciparum EC50, D10attB); 30000 ± 10000 nM in data set [6] (setting [11]). Also, a half-maximal response in data set [7] (setting [11]) (EC50) required 70 ± 10 nM. Besides, the “Toxicity” value in data set [8] is given as “toxicity”.
